According to patent US9006250B2, “4-amino-6-(heterocyclic)picolinates and 6-amino-2-(heterocyclic)pyrimidine-4-carboxylates and their use as herbicides” (Dow AgroSciences, LLC, priority 2013, dated 2015):

Tests used:
Assay in all cases: Post-Emergent Test II herbicidal activity
Type in all cases: in vivo
[1] = system: ECHCG: barnyardgrass (Echinochloa crus-galli); conditions: post-emergence, 336 h, 14 days, read-out: Visual Growth Reduction (%) 14 Days After Application ECHCG; for pest or weed control at 35 g/ha: 35 g ai/ha; for pest or weed control at 70 g/ha: 70 g ai/ha; for pest or weed control at 140 g/ha: 140 g ai/ha
Procedure: (§1) Post-Emergent Test II: Seeds or nutlets of the desired test plant species were planted in Sun Gro Metro-Mix® 360 planting mixture, which typically has a pH of 6.0 to 6.8 and an organic matter content of about 30 percent, in plastic pots with a surface area of 64 square centimeters. When required to ensure good germination and healthy plants, a fungicide treatment and/or other chemical or physical treatment was applied. The plants were grown for 7-21 d in a greenhouse with an approximate 15 h photoperiod which was maintained at about 23-29° C. during the day and 22-28° C. during the night. Nutrients and water were added on a regular basis and supplemental lighting was provided with overhead metal halide 1000-Watt lamps as necessary. The plants were employed for testing when they reached the first or second true leaf stage.
(§2) A weighed amount, determined by the highest rate to be tested, of each test compound was placed in a 25 mL glass vial and was dissolved in 4 mL of a 97:3 v/v mixture of acetone and DMSO to obtain concentrated stock solutions. […] The concentrated stock solutions obtained were diluted with 20 mL of an aqueous mixture containing acetone, water, isopropyl alcohol, DMSO, Atplus 411F crop oil concentrate, and Triton® X-155 surfactant in a 48.5:39:10:1.5:1.0:0.02 v/v ratio to obtain spray solutions containing the highest application rates. Additional application rates were obtained by serial dilution of 12 mL of the high rate solution into a solution containing 2 mL of 97:3 v/v mixture of acetone and DMSO and 10 mL of an aqueous mixture containing acetone, water, isopropyl alcohol, DMSO, Atplus 411F crop oil concentrate, and Triton X®-155 surfactant in a 48.5:39:10:1.5:1.0:0.02 v/v ratio to obtain ½×, ¼×, ⅛× and 1/16× rates of the high rate. Compound requirements are based upon a 12 mL application volume at a rate of 187 liters per hectare (L/ha). Formulated compounds were applied to the plant material with an overhead Mandel track sprayer equipped with 8002E nozzles calibrated to deliver 187 L/ha over an application area of 0.503 square meters at a spray height of 18 inches […] above the average plant canopy height. Control plants were sprayed in the same manner with the solvent blank.
(§3) The treated plants and control plants were placed in a greenhouse as described above and watered by subirrigation to prevent wash-off of the test compounds. After 14 d, the condition of the test plants as compared with that of the untreated plants was determined visually and scored on a scale of 0 to 100 percent where 0 corresponds to no injury and 100 corresponds to complete kill.

[2] = system: EPHHL: wild poinsettia (Euphorbia heterophylla); conditions: post-emergence, 336 h, 14 days, read-out: Visual Growth Reduction (%) 14 Days After Application EPHHL; for pest or weed control at 35 g/ha: 35 g ai/ha; for pest or weed control at 70 g/ha: 70 g ai/ha; for pest or weed control at 140 g/ha: 140 g ai/ha
Procedure: as §1, §2, §3

[3] = system: ORYSA: rice (Oryza sativa); conditions: post-emergence, 336 h, 14 days, read-out: Visual Growth Reduction (%) 14 Days After Application ORYSA; for pest or weed control at 35 g/ha: 35 g ai/ha; for pest or weed control at 70 g/ha: 70 g ai/ha; for pest or weed control at 140 g/ha: 140 g ai/ha
Procedure: as §1, §2, §3

[4] = system: TRZAS: wheat, spring (Triticum aestivum); conditions: post-emergence, 336 h, 14 days, read-out: Visual Growth Reduction (%) 14 Days After Application TRZAS; for pest or weed control at 35 g/ha: 35 g ai/ha; for pest or weed control at 70 g/ha: 70 g ai/ha; for pest or weed control at 140 g/ha: 140 g ai/ha
Procedure: as §1, §2, §3

[5] = system: CYPES: yellow nutsedge (Cyperus esculentus); conditions: post-emergence, 336 h, 14 days, read-out: Visual Growth Reduction (%) 14 Days After Application CYPES; for pest or weed control at 35 g/ha: 35 g ai/ha; for pest or weed control at 70 g/ha: 70 g ai/ha; for pest or weed control at 140 g/ha: 140 g ai/ha
Procedure: as §1, §2, §3

[6] = system: ABUTH: velvetleaf (Abutilon theophrasti); conditions: post-emergence, 336 h, 14 days, read-out: Visual Growth Reduction (%) 14 Days After Application ABUTH; for pest or weed control at 35 g/ha: 35 g ai/ha; for pest or weed control at 70 g/ha: 70 g ai/ha; for pest or weed control at 140 g/ha: 140 g ai/ha
Procedure: as §1, §2, §3

[7] = system: ZEAMX: maize, corn (Zea mays); conditions: post-emergence, 336 h, 14 days, read-out: Visual Growth Reduction (%) 14 Days After Application ZEAMX; for pest or weed control at 35 g/ha: 35 g ai/ha; for pest or weed control at 70 g/ha: 70 g ai/ha; for pest or weed control at 140 g/ha: 140 g ai/ha
Procedure: as §1, §2, §3

[8] = system: HELAN: sunflower (Helianthus annuus); conditions: post-emergence, 336 h, 14 days, read-out: Visual Growth Reduction (%) 14 Days After Application HELAN; for pest or weed control at 35 g/ha: 35 g ai/ha; for pest or weed control at 70 g/ha: 70 g ai/ha; for pest or weed control at 140 g/ha: 140 g ai/ha
Procedure: as §1, §2, §3

[9] = system: AMARE: redroot pigweed (Amaranthus retroflexus); conditions: post-emergence, 336 h, 14 days, read-out: Visual Growth Reduction (%) 14 Days After Application AMARE
Procedure: as §1, §2, §3

[10] = system: CHEAL: lambsquarters (Chenopodium album); conditions: post-emergence, 336 h, 14 days, read-out: Visual Growth Reduction (%) 14 Days After Application CHEAL; for pest or weed control at 35 g/ha: 35 g ai/ha; for pest or weed control at 70 g/ha: 70 g ai/ha; for pest or weed control at 140 g/ha: 140 g ai/ha
Procedure: as §1, §2, §3

[11] = system: BRSNN: oilseed rape, canola (Brassica napus); conditions: post-emergence, 336 h, 14 days, read-out: Visual Growth Reduction (%) 14 Days After Application BRSNN; for pest or weed control at 35 g/ha: 35 g ai/ha; for pest or weed control at 70 g/ha: 70 g ai/ha; for pest or weed control at 140 g/ha: 140 g ai/ha
Procedure: as §1, §2, §3

[12] = system: SETFA: giant foxtail (Setaria faberi); conditions: post-emergence, 336 h, 14 days, read-out: Visual Growth Reduction (%) 14 Days After Application SETFA; for pest or weed control at 35 g/ha: 35 g ai/ha; for pest or weed control at 70 g/ha: 70 g ai/ha; for pest or weed control at 140 g/ha: 140 g ai/ha
Procedure: as §1, §2, §3

Nc1c(F)c(-c2ccc3nonc3c2)nc(C(=O)O)c1Cl [Compound 2, 4-Amino-6-(benzo[c][1,2,5]oxadiazol-5-yl)-3-chloro-5-fluoropicolinic acid]
95 to 100%: pest or weed control at 140 g/ha [8] | pest or weed control at 35 g/ha ([9]; 35 g ai/ha) | pest or weed control at 70 g/ha ([9]; 70 g ai/ha) | pest or weed control at 140 g/ha ([9]; 140 g ai/ha) | pest or weed control at 35 g/ha [10] | pest or weed control at 70 g/ha [10] | pest or weed control at 140 g/ha [10]
75 to 84%: pest or weed control at 70 g/ha [1] | pest or weed control at 140 g/ha [1] | pest or weed control at 35 g/ha [6] | pest or weed control at 70 g/ha [6] | pest or weed control at 70 g/ha [11] | pest or weed control at 140 g/ha [11]
60 to 74%: pest or weed control at 35 g/ha [1] | pest or weed control at 35 g/ha [2] | pest or weed control at 70 g/ha [2] | pest or weed control at 140 g/ha [2] | pest or weed control at 35 g/ha [4] | pest or weed control at 70 g/ha [4] | pest or weed control at 140 g/ha [4] | pest or weed control at 35 g/ha [7] | pest or weed control at 70 g/ha [7] | pest or weed control at 140 g/ha [7] | pest or weed control at 35 g/ha [11]
85 to 94%: pest or weed control at 140 g/ha [6] | pest or weed control at 35 g/ha [8] | pest or weed control at 70 g/ha [8]
0 to 29%: pest or weed control at 35 g/ha [3] | pest or weed control at 70 g/ha [3] | pest or weed control at 140 g/ha [3] | pest or weed control at 35 g/ha [5] | pest or weed control at 70 g/ha [5] | pest or weed control at 140 g/ha [5]

COc1cc2nonc2cc1-c1cc(N)c(Cl)c(C(=O)O)n1 [Compound 5, 4-Amino-3-chloro-6-(6-methoxybenzo[c][1,2,5]oxadiazol-5-yl)picolinic acid]
0 to 29%: pest or weed control at 35 g/ha [12] | pest or weed control at 70 g/ha [12] | pest or weed control at 140 g/ha [12] | pest or weed control at 35 g/ha [1] | pest or weed control at 70 g/ha [1] | pest or weed control at 140 g/ha [1] | pest or weed control at 35 g/ha [2] | pest or weed control at 70 g/ha [2] | pest or weed control at 140 g/ha [2] | pest or weed control at 35 g/ha [3] | pest or weed control at 70 g/ha [3] | pest or weed control at 140 g/ha [3] | pest or weed control at 35 g/ha [4] | pest or weed control at 70 g/ha [4] | pest or weed control at 140 g/ha [4] | pest or weed control at 35 g/ha [5] | pest or weed control at 70 g/ha [5] | pest or weed control at 140 g/ha [5] | pest or weed control at 35 g/ha [6] | pest or weed control at 70 g/ha [6] | pest or weed control at 140 g/ha [6] | pest or weed control at 35 g/ha [7] | pest or weed control at 70 g/ha [7] | pest or weed control at 140 g/ha [7] | pest or weed control at 35 g/ha [8] | pest or weed control at 70 g/ha [8] | pest or weed control at 140 g/ha [8] | pest or weed control at 35 g/ha [10] | pest or weed control at 70 g/ha [10] | pest or weed control at 140 g/ha [10] | pest or weed control at 35 g/ha [11] | pest or weed control at 70 g/ha [11] | pest or weed control at 140 g/ha [11]

COC(=O)c1nc(-c2cc3nonc3cc2F)nc(N)c1OC [Compound 10, Methyl 6-amino-2-(6-fluorobenzo[c][1,2,5]oxadiazol-5-yl)-5-methoxypyrimidine-4-carboxylate]
60 to 74%: pest or weed control at 70 g/ha [2] | pest or weed control at 35 g/ha [11]
0 to 29%: pest or weed control at 35 g/ha [12] | pest or weed control at 70 g/ha [12] | pest or weed control at 140 g/ha [12] | pest or weed control at 35 g/ha [1] | pest or weed control at 70 g/ha [1] | pest or weed control at 140 g/ha [1] | pest or weed control at 35 g/ha [3] | pest or weed control at 70 g/ha [3] | pest or weed control at 140 g/ha [3] | pest or weed control at 35 g/ha [4] | pest or weed control at 70 g/ha [4] | pest or weed control at 140 g/ha [4] | pest or weed control at 35 g/ha [5] | pest or weed control at 70 g/ha [5] | pest or weed control at 140 g/ha [5] | pest or weed control at 35 g/ha [6] | pest or weed control at 70 g/ha [6] | pest or weed control at 140 g/ha [6] | pest or weed control at 35 g/ha [7] | pest or weed control at 70 g/ha [7] | pest or weed control at 140 g/ha [7] | pest or weed control at 35 g/ha [8] | pest or weed control at 70 g/ha [8] | pest or weed control at 35 g/ha [10] | pest or weed control at 70 g/ha [10] | pest or weed control at 140 g/ha [10]
75 to 84%: pest or weed control at 140 g/ha [2] | pest or weed control at 70 g/ha [11] | pest or weed control at 140 g/ha [11]
45 to 59%: pest or weed control at 35 g/ha [2]
